In the NIST ThermoML archive (doi:10.1016/j.jct.2010.11.017):
Numbers after ± are expanded uncertainties.

Assay: wn = mass fraction of the nth substance listed
Settings: 101 kPa, Liquid; for viscosity: Capillary tube (Ostwald / Ubbelohde) method; for speed of sound: Frequency=3 MHz, Linear variable-path acoustic interferometer; for mass density: Pycnometric method

O=C[C@H](O)[C@@H](O)[C@H](O)[C@H](O)CO [D-glucose] + O
Settings | mass density [kg/m3] | speed of sound [m/s] | viscosity [mPa·s]
293.15 K, w1 = 0.05 | 1016.28 ± 6 | – | 1.176 ± 0.12
293.15 K, w1 = 0.1 | 1034.79 ± 6 | 1521.4 ± 10 | 1.357 ± 0.14
293.15 K, w1 = 0.15 | 1053.29 ± 6 | 1532.4 ± 10 | 1.541 ± 0.15
293.15 K, w1 = 0.2 | 1072.41 ± 6 | 1543.2 ± 10 | 1.877 ± 0.19
298.15 K, w1 = 0.05 | 1014.69 ± 6 | 1514.3 ± 10 | 0.9767 ± 0.098
298.15 K, w1 = 0.1 | 1033.15 ± 6 | 1530.6 ± 10 | 1.12 ± 0.11
298.15 K, w1 = 0.15 | 1051.61 ± 6 | 1542.5 ± 10 | 1.316 ± 0.13
298.15 K, w1 = 0.2 | 1070.31 ± 6 | 1553.3 ± 10 | 1.67 ± 0.17
303.15 K, w1 = 0.05 | 1013.08 ± 6 | 1525.1 ± 10 | 0.8605 ± 0.086
303.15 K, w1 = 0.1 | 1031.5 ± 6 | 1540.3 ± 10 | 0.9907 ± 0.099
303.15 K, w1 = 0.15 | 1049.92 ± 6 | 1551.5 ± 10 | 1.147 ± 0.12
303.15 K, w1 = 0.2 | 1068.17 ± 6 | 1563.1 ± 10 | 1.491 ± 0.15
308.15 K, w1 = 0.05 | 1011.47 ± 6 | 1535.7 ± 10 | 0.7697 ± 0.077
308.15 K, w1 = 0.1 | 1029.84 ± 6 | 1550.2 ± 10 | 0.8844 ± 0.089
308.15 K, w1 = 0.15 | 1048.37 ± 6 | 1560.5 ± 10 | 1.018 ± 0.1
308.15 K, w1 = 0.2 | 1065.97 ± 6 | 1573.5 ± 10 | 1.345 ± 0.13
313.15 K, w1 = 0.05 | 1009.85 ± 6 | 1545.6 ± 10 | 0.6945 ± 0.07
313.15 K, w1 = 0.1 | 1028.17 ± 6 | 1559.9 ± 10 | 0.7901 ± 0.079
313.15 K, w1 = 0.15 | 1046.62 ± 6 | 1569.6 ± 10 | 0.8925 ± 0.089
313.15 K, w1 = 0.2 | 1063.76 ± 6 | 1582.2 ± 10 | 1.21 ± 0.12
318.15 K, w1 = 0.05 | – | 1554.5 ± 10 | 0.6334 ± 0.064
318.15 K, w1 = 0.1 | 1026.48 ± 6 | 1568.4 ± 10 | 0.7223 ± 0.072
318.15 K, w1 = 0.15 | 1044.93 ± 6 | 1577.2 ± 10 | 0.8097 ± 0.081
318.15 K, w1 = 0.2 | 1061.52 ± 6 | 1591.2 ± 10 | 1.112 ± 0.11
